Each compound was assayed on Rat Aorta (assay: inhibition of calcium induced contraction of vascular smooth muscle (rat aorta segments)). Conditions: at 10^-7 M, 1.0 mM calcium chloride induced contraction, read-out: Percent Inhibition of Rat Aorta.
Format: cell-based, male Sprague-Dawley rats
Experimental: The property may be observed in a test in which segments of vascular smooth muscle obtained from male Sprague-Dawleyrats are suspended in physiological salt solution in a tissue bath instrumented for recording contractions. After the tissue has been equilibrated, washed in calcium-free physiological salt solution and then depolarized, 1.0 mM calcium chloride is re-added to induce contraction. After the contraction has reached a plateau, tissues are washed and a test compound or vehicle is added to determine the effect achieved by the above cyclic protocol on a second contraction. From measuring the initial contraction as well as the second contraction in the presence of the test compound, the extent of inhibition may be calculated. The results of these tests for representative compounds in the compositions of the present invention are seen in the following table.
CSc1ccc2c(c1)C(N1CCN(C)CC1)c1ccccc1C=C2 (centres unmarked) [1-Methyl-4-(3-methylthio-5H-dibenzo[a,d]cyclohepten-5-yl)piperazine] was tested, and the inhibition at 0.1 µM was 76%.
CCOC(=O)N1CCN(C2c3ccccc3C=Cc3ccccc32)CC1 [Ethyl 4-(5H-Dibenzo[a,d]cyclohepten-5-yl)-1-piperazinecarboxylate] showed an inhibition at 0.1 µM of 37%.
With CN1CCN(C2c3ccccc3C=Cc3ccccc32)CC1 [1-(5H-dibenzo[a,d]cyclohepten-5-yl)-4-methylpiperazine] the inhibition at 0.1 µM was 59%.
With CN1CCN(C2c3ccccc3C=Cc3ccc(Cl)cc32)CC1 (centres unmarked) [1-(3-Chloro-5H-dibenzo[a,d]cyclohepten-5-yl)-4-methylpiperazine] the inhibition at 0.1 µM was 90%.
Work on Brc1ccc2c(c1)C(N1CCN(CC=Cc3ccccc3)CC1)c1ccccc1C=C2 (centres unmarked) [1-(3-bromo-5H-dibenzo[a,d]cyclohepten-5-yl)-4-cinnamylpiperazine] yielded an inhibition at 0.1 µM of 41%.
COc1ccc2c(c1)C(N1CCN(C)CC1)c1ccccc1C=C2 (centres unmarked) [1-(3-Methoxy-5H-dibenzo[a,d]cyclohepten-5-yl)-4-methylpiperazine] gave an inhibition at 0.1 µM of 65%.
COc1ccc2c(c1)C(N1CCN(C)CC1)c1ccccc1CC2 (centres unmarked) [1-(10,11-Dihydro-3-methoxy-5H-dibenzo[a,d]cyclohepten-5-yl)-4-methylpiperazine] showed an inhibition at 0.1 µM of 36%.
Work on C1=Cc2ccccc2C(N2CCNCC2)c2ccccc21 [1-(5H-Dibenzo[a,d]cyclohepten-5-yl)piperazine] yielded an inhibition at 0.1 µM of 34%.
CN1CCN(C2c3ccccc3CSc3ccccc32)CC1 (centres unmarked) [1-(6,11-Dihydrodibenzo[b,e]thiepin-11-yl)-4-methylpiperazine] was tested, and the inhibition at 0.1 µM was 30%.

Same assay, conditions: at 10^-8 M, 1.0 mM calcium chloride induced contraction, read-out: Percent Inhibition of Rat Aorta
For CN1CCN(C2c3ccccc3C=Cc3ccc(Br)cc32)CC1 (centres unmarked) [1-(3-Bromo-5H-dibenzo[a,d]cyclohepten-5-yl)-4-methylpiperazine], the inhibition at 0.01 µM was 48%.
C(=Cc1ccccc1)CN1CCN(C2c3ccccc3C=Cc3ccccc32)CC1 [1-cinnamyl-4-(5H-dibenzo[a,d]cyclohepten-5-yl)piperazine] gave an inhibition at 0.01 µM of 89%.
